US11173102B1, “Methods and compositions for removing color from color-treated hair” (L'Oreal, priority 2020, dated 2021)
Several values for one entry are separate records, joined by “and”; a condition that tells them apart may be missing. Equal values may be shown once.

Key:
[1] = Log Pow (octanol/water partition coefficient) of direct dyes; settings: octanol/water partition coefficient of the dye
[2] = Color removal (ΔE) from HC blue 15 dyed, multiple-shampooed platinum bleached hair, with co-surfactants and cyclic compounds; settings: 30 min 40° C.
[3] = Controlled color removal of two-tone colored hair over one, three and six shampoo washes; settings: 10% TBuMA Cl added to commercial shampoo containing about 9% SLES, up to six washes
Source text: The swatches were then washed with either the shampoo alone (control) or shampoo with TBuMA Cl and evaluated after one, three and six washes. Without addition of TBuMA Cl, the indigo color shifts to green as the number of shampoos increased. This is because Basic Red 51, a cationic direct dye, is washed out faster from hair by washing with shampoo than the HC Blue 15.

[4] = Color removal (ΔE) from hair swatches dyed with HC Blue 15, soaked 30 minutes at 40° C., shampooed once
Protocol: Unless otherwise indicated, hair swatches were all treated using the same protocol. Specifically, 2 g dyed hair swatches were soaked in 80 g treatment solutions or samples in water for 30 minutes at 40° C., then the treated hair swatches were then shampooed once and blow-dried for evaluation.

[5] = Color removal (ΔE) from hair swatches dyed with hydroxyanthraquinoneaminopropyl methyl morpholinium methosulfate, 23° C.; settings: 6% SLES in water; 30 min 23° C.

With `CNc1cc(OCC(O)CO)ccc1[N+](=O)[O-]` (stereo not drawn) [2-NITRO-5-GLYCERYL METHYLANILINE] the “Log Pow” value [1] was 0.89.

With `O=[N+]([O-])c1cc(O)ccc1NCCO` [3-NITRO-P-HYDROXYETHYLAMINOPHENOL] the “Log Pow” value [1] was 0.21.

For `Nc1ccc(O)cc1[N+](=O)[O-]` [4-AMINO-3-NITROPHENOL], the “Log Pow” value [1] was 1.19.

In the case of `Nc1c(N=Nc2ccc([N+](=O)[O-])cc2)c(S(=O)(=O)[O-])cc2cc(S(=O)(=O)[O-])c(N=Nc3ccccc3)c(O)c12.[Na+].[Na+]` [ACID BLACK 1], the “Log Pow” value [1] was 1.2.

With `CCN(Cc1cccc(S(=O)(=O)[O-])c1)c1ccc(C(=C2C=CC(=[N+](CC)Cc3cccc(S(=O)(=O)[O-])c3)C=C2)c2ccccc2S(=O)(=O)[O-])cc1.[Na+].[Na+]` [ACID BLUE 9] the “Log Pow” value [1] was −0.32.

In the case of `Cc1ccc(Nc2ccc(Nc3ccc(C)cc3S(=O)(=O)[O-])c3c2C(=O)c2ccccc2C3=O)c(S(=O)(=O)[O-])c1.[Na+].[Na+]` [ACID GREEN 25], the “Log Pow” value [1] was 5.71.

With `O=S(=O)([O-])c1ccc(N=Nc2c(O)ccc3ccccc23)cc1.[Na+]` [ACID ORANGE 7] the “Log Pow” value [1] was 1.4.

For `O=S(=O)(O)c1cc(S(=O)(=O)O)c2c(/N=N\c3ccc(S(=O)(=O)O)c4ccccc34)c(O)ccc2c1` [ACID RED18], the “Log Pow” value [1] was 1.63.

With `Nc1cc(S(=O)(=O)[O-])cc2cc(S(=O)(=O)[O-])c(N=Nc3ccccc3)c(O)c12.[Na+].[Na+]` [ACID RED 33] the “Log Pow” value [1] was 0.5.

For `CCN(CC)c1ccc2c(-c3ccc(S(=O)(=O)[O-])cc3S(=O)(=O)[O-])c3ccc(=[N+](CC)CC)cc-3oc2c1.[Na+]` [ACID RED 52], the “Log Pow” value [1] was 1.3.

In the case of `O=C([O-])c1c(Cl)c(Cl)c(Cl)c(Cl)c1-c1c2cc(Br)c(=O)c(Br)c-2oc2c(Br)c([O-])c(Br)cc12.[Na+].[Na+]` [ACID RED 92], the “Log Pow” value [1] was 3.

With `Cc1ccc(Nc2ccc(O)c3c2C(=O)c2ccccc2C3=O)c(S(=O)(=O)[O-])c1.[Na+]` [ACID VIOLET 43] the “Log Pow” value [1] was 3.1.

In the case of `O=C([O-])C1=NN(c2ccc(S(=O)(=O)[O-])cc2)C(=O)C1N=Nc1ccc(S(=O)(=O)[O-])cc1.[Na+].[Na+].[Na+]` (stereo not drawn) [ACID YELLOW 23], the “Log Pow” value [1] was −10.17.

With `C[N+](C)(C)c1cccc(N=C2C=C(N)c3c(O)c(Br)cc(N)c3C2=O)c1.[Cl-]` [BASIC BLUE 99] the “Log Pow” value [1] was 1.88.

In the case of `C[N+](C)(C)c1ccc2ccc(O)c(N=Nc3ccc(N)c([N+](=O)[O-])c3)c2c1.[Cl-]` [BASIC BROWN 17], the “Log Pow” value [1] was −0.15.

For `Cn1cc[n+](C)c1N=Nc1ccc(N)cc1.[Cl-]` [BASIC ORANGE 31], the “Log Pow” value [1] was −2.31.

With `CN(C)c1ccc(N=Nc2n(C)cc[n+]2C)cc1.[Cl-]` [BASIC RED 51] the “Log Pow” value [1] was −1.97 and the “Log Pow” value ([1]; listed as Basic Red 51) was “around −1.97”.

With `CC1=NN(c2ccccc2)C(=O)C1N=Nc1cccc([N+](C)(C)C)c1.[Cl-]` (stereo not drawn) [BASIC YELLOW 57] the “Log Pow” value [1] was 0.06.

With `CN(N=Cc1cc[n+](C)cc1)c1ccccc1` [BASIC YELLOW 87] the “Log Pow” value [1] was −1.69.

For `OCc1ccccc1` [Benzyl Alcohol, benzyl alcohol], the ΔE ([2]; 10% Benzyl Alcohol, hair pre-shampooed 6×) was 9.4.

In the case of `Nc1ccc(N)c2c1C(=O)c1ccccc1C2=O` [DISPERSE VIOLET 1], the “Log Pow” value [1] was 3.

Work on `CCO` [EtOH, ethanol] yielded a ΔE ([2]; 16% EtOH, hair pre-shampooed 4×) of 1.77 and a ΔE ([2]; 16% EtOH, hair pre-shampooed 6×) of 1.8.

With `O=[N+]([O-])c1cc(N(CCO)CCO)ccc1NCCO` [HC BLUE NO. 2] the “Log Pow” value [1] was −0.32.

With `O=C1c2ccccc2C(=O)c2c(NCC(O)CO)ccc(NCC(O)CO)c21` (stereo not drawn) [HC BLUE NO. 14] the “Log Pow” value [1] was 2.09.

For `CC1=CC(=C(c2cc(C)c(N)c(C)c2)c2c(Cl)cccc2Cl)C=C(C)C1=N.O=P(O)(O)O` [HC BLUE NO. 15], the “Log Pow” value [1] was 3.47, the “Log Pow” value ([1]; listed as HC Blue 15) was “around 3.47” and the “Log Pow” value ([1]; listed as HC blue 15) was “around 3.47”.

For `NCCNc1ccc(OCCO)cc1[N+](=O)[O-]` [HC ORANGE NO. 2], the “Log Pow” value [1] was 0.13.

For `Nc1ccc(NCCO)c([N+](=O)[O-])c1` [HC RED NO.3], the “Log Pow” value [1] was −0.42.

With `Cc1cc(N)c([N+](=O)[O-])cc1NCCO` [HC VIOLET NO 1] the “Log Pow” value [1] was 0.67.

For `O=[N+]([O-])c1cc(N(CCO)CCO)ccc1NCCCO` [HC VIOLET NO 2], the “Log Pow” value [1] was 0.608.

For `COc1ccc([N+](=O)[O-])c(NCCN)c1.Cl` [HC YELLOW NO.9], the “Log Pow” value [1] was 1.3.

With `Cc1cc(N(CCO)CCO)ccc1N=Nc1ccc(N)cc1` [HC YELLOW NO. 7] the “Log Pow” value [1] was 2.59.

In the case of `CCCC[N+](C)(CCCC)CCCC.[Cl-]` [TBuMA Cl, tributylmethyl ammonium chloride], the ΔE ([2]; 10% TBuMA Cl, hair pre-shampooed 4×) was 3.63, the “leaching of Basic Red 51” value ([3]; versus shampoo alone) was “deterred or inhibited” and the “removal of HC Blue 15” value ([3]; versus shampoo alone) was “accelerated”. For the same compound, the “indigo color tone during shampooing” value [3] was “maintained” and the ΔE ([4]; 10 wt.% organic salt, 0 wt. % SLES, 30 min 40° C.) was 1.8.

For `COS(=O)(=O)[O-].C[N+]1(CCCNc2ccc(O)c3c2C(=O)c2ccccc2C3=O)CCOCC1` [hydroxyanthraquinoneaminopropyl methyl morpholinium methosulfate], the “Log Pow” value [1] was 0.89 and the “Log Pow” value ([1]; listed as hydroxyanthraquinoneaminopropyl methyl morpholinium methosulfate) was “around 0.89”.

With ACID YELLOW 3 the “Log Pow” value [1] was −1.05.

For HC RED NO. 7, the “Log Pow” value [1] was 0.13.

With sodium laureth sulfate [SLES] the ΔE ([2]; 6% SLES, hair pre-shampooed 4×) was 19.3, the ΔE ([2]; 6% SLES, hair pre-shampooed 6×) was 15.01 and the ΔE ([4]; 0 wt.% organic salt, 3 wt. % SLES, 30 min 40° C.) was 21.08 and 21.1. The ΔE ([4]; 0 wt.% organic salt, 6 wt. % SLES, 30 min 40° C.) was 21.81 and 21.4, the ΔE ([4]; 0 wt.% organic salt, 12 wt. % SLES, 30 min 40° C.) was 21.84 and the ΔE ([4]; SLES alone, over the concentrations tested (3-12 wt. %)) was 21-22. The ΔE [5] was 18.2.
